# Measurements: patent publication US11879145B2, “Reagents and methods for replication, transcription, and translation in semi-synthetic organisms” (The Scripps Research Institute, priority 2019, dated 2024)
# Test system: sfGFP^151(AXC)
# Experiment: In vivo translation screen of XTPs/YTPs: protein shift (AzK incorporation) by DBCO-TAMRA western blot
# Format: cell-based, E. coli
# Conditions: TPT3TP 30 μM, dCNMO-dTPT3 UBP, strain ML2
# Experimental: In vivo Translation Screen of XTPs/YTPs. An overnight culture of the SSO strain ML2 carrying the pGEX-MbPylRS TetR plasmid was grown in 2×YT supplemented with 50 mM potassium phosphate, […] chloramphenicol and 100 μg/mL carbenicillin (herein referred to in this section as “media”), then diluted back to an OD600 of 0.03 in the same media and grown to an OD600 of 0.4 to 0.6. The culture was then chilled with shaking over ice-water for 15 minutes then pelleted by centrifugation at 3,200×g for 10 min. Cells were then resuspended and washed with ice-cold ddH2O twice then resuspended in ice-cold ddH2O to OD600 of 55-65. The electrocompetent cells (50 μL) and 1 ng of Golden Gate assembled plasmid with the UBP within the sfGFP and tRNAPyl genes (see Golden Gate Assembly of Plasmids) were transferred to a pre-chilled electroporation cuvette (0.2-cm-gap), then electroporated (Gene Pulser II; Bio-Rad) according to manufacturer's recommendations (voltage […], capacitor 2.5 μF, resistor 200Ω), and then immediately diluted with 950 μL of media. An aliquot (40 μL) of the transformation was then diluted five-fold in media supplemented with dCNMOTP (25 μM) and dTPT3TP (10 μM) for a final volume of 200 μL then allowed to recover for 1 h shaking at 37° C. Two-fold dilutions of the recovery were plated onto solid media supplemented with zeocin (50 μg/mL), dCNMOTP (10 μM), dTPT3TP (10 μM), and agar (2% w/v), then grown at 37° C. for 18 h. Single colonies were picked and grown in media (300 μL) supplemented with 50 μg/mL zeocin and provided dCNMOTP (25 μM) and dTPT3TP (10 μM) (herein afterward referred to in this section as “growth media”). The culture was monitored for cell growth (Envision 2103 Multilabel Plate Reader with a 590/20 nm filter) and then collected at an OD600˜1.0. An aliquot (50 μL) was subjected to plasmid isolation using the ZR Plasmid Prep Kit (Zymo Research). Isolated plasmids were then subjected to the streptavidin gel shift assay described below (using primers P3-4 and P5-6, Table S1) to determine UBP retention.
# A colony with excellent UBP retention was then diluted to an OD600˜0.01 in growth media and grown to OD600˜0.4-0.6. This culture was then divided into multiple 300 μL cultures and for the screen of XTP analogs, each was provided with the corresponding XTP (at either 25 μM or 250 μM) or ddH2O for “−XTP” samples, TPT3TP (30 μM), and AzK (10 mM). For the screen of YTP analogs, each 300 μL culture was provided with the corresponding YTP (at either 25 μM or 250 μM) or ddH2O for “−YTP” samples, NaMTP (250 μM), and AzK (10 mM). Samples were shielded from light after addition of AzK to prevent photodegradation. These samples were then grown at 37° C. for 20 min before adding 1 mM IPTG and grown at 37° C. for an additional 1 h to induce T7 RNAP and transcription of tRNAPyl and PylRS. From this point on, cells were monitored for growth and fluorescence. Expression of sfGFP was then induced with anhydrotetracycline (100 ng/mL). After an additional 3 h of growth at 37° C., cells were collected (230 μL for affinity purification of sfGFP), cooled, and then pelleted and stored at −80° C. before protein purification.
# Affinity Purification of sfGFP. Cell pellets collected from translation experiments were resuspended in BugBuster (100 μL 1×, EMD Millipore) and shaken at room temperature for 15 min. […]
smiles,measurement,setting,value
COc1cc(C)c(F)cc1[C@@H]1O[C@H](COP(=O)(O)OP(=O)(O)OP(=O)(O)O)[C@@H](O)[C@H]1O [Compound 5FMTP],sfGFP protein gel shift (ncAA incorporation),XTP 25 μM,94%
same,sfGFP protein gel shift (ncAA incorporation),XTP 250 μM,98%
